Test systems include NCI-H522; CAKI-1; M19-MEL; SF-295; EKVX; A549; HT-29; HCT-116; COLO 205; LOX IMVI; NCI-H460; MOLT-4; SF-539; SN12C; RPMI-8226; SW-620; DMS-114; SK-OV-3; T47D; MDA-N.
Common to all, as to test: NCI anticancer screen, dose series, 48 h

SMILES strings stand for the structures.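 Protocol summary: plate cells (96-well), add compound at 5 concentrations, incubate 48 h, interpolate endpoints linearly. At the GI50, growth is halved.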 Calls of active or inactive are those of the source. No stated cut-off is given here; in the data, active = GI50 up to about 1.1 µM and inactive = higher.

In the case of `CC(=O)C=C1Nc2ccccc2N1`, the GI50 with NCI-H522, in the test on CAKI-1, in the test on M19-MEL, in the test with SF-295, with EKVX and with A549 was > 100 µM (inactive) each time. Besides, the GI50 in the test on HT-29, with HCT-116, in the test with COLO 205, in the test on LOX IMVI, in the test with NCI-H460 and in the test on MOLT-4 was > 100 µM (inactive) in each case. The GI50 with SF-539, with SN12C, with RPMI-8226 and in the test on SW-620 was > 100 µM (inactive) each time.
Regarding `C[Si](C)(C)CN1C(=O)c2ccccc2C1(O)c1ccccc1` (centres undefined), the GI50 with NCI-H522 was 33.5 µM (inactive); in the test with CAKI-1, 46.1 µM (inactive); with DMS-114, 41.6 µM (inactive); in the test with SF-295 it was 64.4 µM (inactive); with EKVX, 91 µM (inactive); with A549 it was 40.4 µM (inactive). The GI50 was 87.9 µM (inactive) in the test with HT-29; 48 µM (inactive) in the test on HCT-116; 92.7 µM (inactive) with COLO 205; 49.4 µM (inactive) with LOX IMVI; 65.6 µM (inactive) in the test on NCI-H460; 24.2 µM (inactive) in the test on MOLT-4. In addition, the values for the GI50 in the test on SF-539, in the test with SN12C and in the test on SW-620 were > 100 µM (inactive), > 89.3 µM (inactive) and > 100 µM (inactive), respectively.
Turning to `Cc1cc2c(c(C#N)c1C)NC(=O)C(CC(=O)O)C2=O` (centres undefined), the GI50 with CAKI-1, in the test with DMS-114, in the test with SK-OV-3, in the test with M19-MEL, in the test on SF-295 and in the test with EKVX was > 100 µM (inactive) each time. Besides, the GI50 with A549, in the test on HT-29, in the test with HCT-116, in the test with COLO 205, with LOX IMVI and in the test on NCI-H460 was > 100 µM (inactive) throughout. The GI50 in the test on MOLT-4, with SF-539, with SN12C, with RPMI-8226 and in the test with SW-620 was > 100 µM (inactive) each time.
On to `COC(=O)NN1C(C)=C(C(=O)OC)C2(CCOC2=O)C1(C)O` (centres undefined), for which the GI50 in the test on NCI-H522, in the test with CAKI-1, with DMS-114, with SK-OV-3, in the test on SF-295 and in the test on EKVX was > 100 µM (inactive) each time. For the same compound, the GI50 with A549, in the test on HT-29, with HCT-116, in the test on COLO 205, in the test on LOX IMVI and with NCI-H460 was > 100 µM (inactive) each time. Besides, the GI50 with MOLT-4, in the test on SF-539, in the test with SN12C, with RPMI-8226 and in the test with SW-620 was > 100 µM (inactive) in each case.
Consider `CN(C)CC1CCCC(CN2CCCCC2)C1=O` (centres undefined), for which the GI50 was 0.0764 µM (active) in the test on NCI-H522; 1.53 µM (inactive) with CAKI-1; 2.19 µM (inactive) with T47D; > 62.7 µM (inactive) in the test with SK-OV-3; 18.8 µM (inactive) in the test with M19-MEL; > 93.5 µM (inactive) with SF-295. Further, the GI50 is 12.5 µM (inactive) in the test on EKVX; > 62.1 µM (inactive) in the test with A549; 5.4 µM (inactive) in the test on HT-29; 14.4 µM (inactive) in the test on MDA-N; 3.01 µM (inactive) with HCT-116; 3.08 µM (inactive) in the test with COLO 205. In addition, the GI50 is 8.26 µM (inactive) in the test on LOX IMVI; > 55.8 µM (inactive) with NCI-H460; 0.604 µM (active) in the test on MOLT-4; 17.5 µM (inactive) with SF-539; 8.32 µM (inactive) in the test with SN12C; 0.158 µM (active) in the test on RPMI-8226. Also, the GI50 with SW-620 was 1.87 µM (inactive).
On to `Cc1ccc2[nH]c(Sc3c([N+](=O)[O-])ncn3C)nc2c1`, for which the GI50 was 11.9 µM (inactive) in the test on CAKI-1; 14.3 µM (inactive) in the test with DMS-114; 30 µM (inactive) with SK-OV-3; 18.5 µM (inactive) in the test with M19-MEL; > 100 µM (inactive) in the test with SF-295; 26.1 µM (inactive) in the test with EKVX. The GI50 is 30.5 µM (inactive) in the test with A549; 29.6 µM (inactive) in the test on HT-29; 21.1 µM (inactive) in the test on HCT-116; 13.3 µM (inactive) with COLO 205; 34.3 µM (inactive) with LOX IMVI; 35.2 µM (inactive) with NCI-H460. Further, the GI50 is 13.9 µM (inactive) with MOLT-4; 18.1 µM (inactive) with SF-539; 18 µM (inactive) in the test on SN12C; 25.1 µM (inactive) with RPMI-8226; 25.3 µM (inactive) in the test with SW-620.
As for `CCOC(=O)c1cc(/C=C/C(C)=C/C(=O)OC)n(C)c1C`, the GI50 in the test on NCI-H522 is 76 µM (inactive); with CAKI-1 it was > 100 µM (inactive); in the test with SK-OV-3, > 100 µM (inactive); with M19-MEL it was > 100 µM (inactive); in the test with SF-295, > 100 µM (inactive); in the test with EKVX it was > 100 µM (inactive). The GI50 with A549 is > 100 µM (inactive); in the test with HT-29, 40 µM (inactive); in the test on COLO 205, > 100 µM (inactive); in the test on LOX IMVI, > 100 µM (inactive); with NCI-H460, > 100 µM (inactive); in the test on MOLT-4, 41.7 µM (inactive). Further, the GI50 in the test with SF-539 is 77.8 µM (inactive); with SN12C, > 100 µM (inactive); with RPMI-8226 it was 36.2 µM (inactive); with SW-620, > 100 µM (inactive).
Consider `CCc1cccc(C)c1N1C(=O)C(=O)C(c2nc3ccccc3o2)C(=O)C1=O`, for which the GI50 with NCI-H522, with CAKI-1, with SK-OV-3, in the test on M19-MEL, in the test with SF-295 and in the test on EKVX was > 100 µM (inactive) each time. The GI50 in the test on A549, in the test on HT-29, in the test with HCT-116, in the test with COLO 205, in the test on NCI-H460 and in the test on MOLT-4 was > 100 µM (inactive) throughout. Moreover, the GI50 in the test on SF-539, in the test on SN12C, in the test on RPMI-8226 and in the test on SW-620 was > 100 µM (inactive) in each case.
With `CC(C)NCCNC(=O)c1ccccc1Nc1c(Cl)cccc1Cl`, the GI50 was 10.9 µM (inactive) in the test on DMS-114; 14.8 µM (inactive) in the test on SK-OV-3; 8.38 µM (inactive) in the test with M19-MEL; 15.2 µM (inactive) with SF-295; 13.6 µM (inactive) in the test with EKVX; 17.3 µM (inactive) in the test on A549. In addition, the GI50 was 4.71 µM (inactive) with HT-29; 11.3 µM (inactive) with HCT-116; 11.6 µM (inactive) in the test on COLO 205; 7.24 µM (inactive) in the test with LOX IMVI; 3.29 µM (inactive) in the test on NCI-H460; 8.69 µM (inactive) in the test on MOLT-4. In addition, the GI50 is 15.8 µM (inactive) with SF-539, 13.2 µM (inactive) in the test on SN12C, 3.81 µM (inactive) in the test on RPMI-8226 and 15.5 µM (inactive) with SW-620.
